Measurements from patent publication US8748448B2, “Combination analgesic employing opioid agonist and neutral antagonist” (AIKO Biotechnology, priority 2007, dated 2014).
Values joined by “and” are separate entries in the source; they are usually repeats but may differ in a detail not shown here. Equal entries are not always repeated. “Also recorded” adds a separate entry of the source.

Key:
[1] = tested on: hydrocodone-induced antinociception; assay: 55° C. warm-water tail-flick assay: inhibition of hydrocodone-induced antinociception; type: in vivo, mice; conditions: for time of peak effect of antinociception inhibition: hydrocodone 3.2 mg/kg i.v.
[2] = tested on: hydrocodone effects: GI transit (peripheral) vs. antinociception (central); assay: Peripheral vs. central potency, (antinociception ID50)/(GI transit ID50); type: in vivo, mice
[3] = tested on: morphine-induced slowing of gastrointestinal transit; assay: Oral-cecal transit time (lactulose-hydrogen breath test) with 10 mg morphine i.v.; type: in vivo, human
[4] = tested on: morphine-induced analgesia; assay: Cold pressor test with 10 mg morphine i.v.; type: in vivo, human; conditions: doses up to 20 mg i.v.
[5] = tested on: morphine-induced pupil constriction; assay: Pupillometry with 10 mg morphine i.v.; type: in vivo, human; conditions: doses up to 20 mg i.v.
[6] = tested on: gastrointestinal activity in methadone-dependent subjects; assay: Methadone maintenance subjects: laxation and oral-cecal transit time; type: in vivo, human
Description: The aims of this first-in-human study were to examine the pharmacokinetics of 6β-naltrexol to measure two key characteristics of 6β-naltrexol in highly opioid dependent persons: unwanted aspects of opioid antagonism such as withdrawal, and preferential suppression of opioid effects on the gastrointestinal tract compared to the central nervous system. Eight subjects were enrolled. Of these subjects, four were ineligible for dosing with 6β-naltrexol: three due to small bowel bacterial overgrowth and one due to difficulty with IV catheter insertion. […] The remaining two subjects tolerated the 1.0 mg dose and reported a willingness to take higher doses of 6β-naltrexol.
Laxation was experienced for one subject (25%; 101 minutes post dose) at the 0.05 mg dose, three subjects (75%; 2, 17, and 40 minutes post dose) at the 0.5 mg dose, and two subjects (67%; both at 5 minutes post dose) at the 1.0 mg dose. […] In the two subjects who did undergo oral-cecal transit time testing (lactulose/H2 test), 6β-naltrexol accelerated GI transit time at doses of 0.25 mg and above. A quantitative evaluation of this test was not possible because of insufficient number of subjects (data from only two subjects were evaluable, while a third subject had elevated base-line H2 levels, and a fourth subject was not tested), but a detectable reversal of GI slowing at 0.25 mf 6β-naltrexol is consistent with the finding that regulator bowel movement occurred with two subjects at 0.5 mg 6β-naltrexol.

[7] = Methadone maintenance subjects: serum 6β-naltrexol pharmacokinetics; type: in vivo, human; conditions: 1.0 mg dose
Method: Using an assay with a lower limit of quantification of 0.5 ng/mL, 6β-naltrexol was detectable in plasma for only six hours. Determination of terminal half-life of elimination was not feasible because of lack of sufficient assay sensitivity.

[8] = tested on: stereotypic circling induced by morphine; conditions: non-dependent and chronically dependent mice; cited from earlier work
[9] = Neutral antagonist comparison (Table 3)
[10] = Oral bioavailability of the neutral antagonists
[11] = Tolerability of i.v. 6β-naltrexol infusion in opioid-naïve volunteers; conditions: i.v. infusion over 30 minutes, up to 20 mg
[12] = Concentrations in plasma and brain tissue after i.p. injection (LC/MS/MS); conditions: for plasma concentration as metabolite after the naltrexone dose: after naltrexone 1 mg/kg i.p.
[13] = 6β-naltrexol plasma pharmacokinetics after i.v. infusion, opioid-naïve volunteers (eIND); conditions: humans
[14] = tested on: opioid withdrawal in methadone-dependent subjects; assay: Double-blind ascending dose study in methadone maintenance subjects: withdrawal scales, VAS, vital signs, pupillometry, tolerability; conditions: for tolerability: b346: at all but the highest dose (1.0 mg)
[15] = 1 mg/kg i.p., 60 min after injection
[16] = 10 mg/kg i.p., 10 min after injection
[17] = 10 mg/kg i.p., 60 min after injection

6β-naltrexol
Antinociception ID50 ([1]; antagonist i.v. pretreatment, hydrocodone A90 3.2 mg/kg i.v.): 0.222 mg/kg | Antinociception ID50 ([1]; antagonist p.o. co-administered with hydrocodone A90 32 mg/kg p.o.): 12.3 mg/kg | Antinociception ID50 ([1]; antagonist p.o. pretreatment, hydrocodone A90 3.2 mg/kg i.v.): 2.35 mg/kg | time of peak effect of antinociception inhibition ([1]; i.v. administration): 90 min | time of peak effect of antinociception inhibition ([1]; p.o. administration): 120 min | Fold-Shift (antinociception ID50)/(GI transit ID50) ([2]; antagonist p.o./hydrocodone p.o. co-administered): 9.53 and 9.5 | selectivity in blocking peripheral over central opioid effects ([2]; mice, oral administration, earlier experiments): approximately tenfold | therapeutic window (peripheral side effects reduced without inhibition of analgesia) ([2]; mouse, orally co-administered with hydrocodone): 0.1 to 3.0 mg/kg | fold more potent peripherally than centrally ([2]; over all administration routes): 5-10 fold | effect of 20 mg on morphine's GI effects ([3]; 20 mg i.v., 10 mg morphine i.v.): completely blocking; also recorded: completely suppressing | peripheral over central potency ([3]; humans): at least tenfold | effect on morphine-induced analgesia [4]: no detectable effect | effect on morphine-induced pupil constriction [5]: no detectable effect | subjects experiencing laxation ([6]; 0.05 mg dose): 25% | time of laxation post dose ([6]; 0.05 mg dose): 101 min | subjects experiencing laxation ([6]; 0.5 mg dose): 75% | effect on bowel movement ([6]; 0.5 mg i.v.): near normal bowel movement; also recorded: immediate bowel movement | subjects experiencing laxation ([6]; 1.0 mg dose): 67% | time of laxation post dose ([6]; 1.0 mg dose, both subjects): 5 min | Lowest dose producing laxation ([6]; individual patients): 0.5 mg (2×) and 0.05 mg | dose sufficient initially to cause laxation ([6]; iv, methadone maintenance patients): 0.5 mg | doses accelerating GI transit time (lactulose/H2 test) ([6]; two evaluable subjects): ≥ 0.25 mg | AUC ([7]; Subject 1): 7.8 ng·h/mL | CL ([7]; Subject 1): 128 L/h | t1/2 ([7]; Subject 1): 2.2 h | AUC ([7]; Subject 2): 7.6 ng·h/mL | CL ([7]; Subject 2): 131 L/h | t1/2 ([7]; Subject 2): 2.43 h | Cmax ([7]; Subject 2, serum): 3.2 ng/mL | effect on stereotypic circling induced by morphine [8]: prevents | Half-life of active metabolites [9]: 12 h | Bioavailability for CNS (central) effects ([9]; given orally): ~25% | Strength (as compared to 6β-naltrexol) ([9]; given orally, opioid agonist naïve or non-dependent subject): 1 | oral bioavailability (into the circulation), estimated ([10]; humans, estimated): approximately 25% | bioavailability ([10]; rodent, previously determined data not shown): 14% | oral bioavailability ([10]; species not stated): ~20% | tolerability [11]: well tolerated | Brain concentration ([12]; 1 mg/kg i.p., 10 min after injection): 7 ± 6 ng/g | Plasma concentration ([12]; 1 mg/kg i.p., 10 min after injection, mean±SD, n=3): 61 ± 7 ng/mL | Brain concentration [12, 15]: 9 ± 1 ng/g | Plasma concentration [12, 15]: 24 ± 28 ng/mL | Brain concentration [12, 16]: 89 ± 6 ng/g | Plasma concentration [12, 16]: 857 ± 122 ng/mL | Brain concentration [12, 17]: 74 ± 14 ng/g | Plasma concentration [12, 17]: 75 ± 25 ng/mL | change of levels at 60 min from those measured at 10 min ([12]; after i.p. injection): had not changed | plasma concentration as metabolite after the naltrexone dose ([12]; 10 min): 1.9 ng/mL | plasma concentration as metabolite after the naltrexone dose ([12]; 60 min): 1.7 ng/mL | detectability as metabolite after the naltrexone dose ([12]; plasma and brain tissue, method sensitive to approximately 1 ng/mL (g)): detectable in plasma but not brain tissue | blood half-life relative to most commonly used oral opioid analgesic formulations [13]: 3-4 times | mean terminal plasma elimination half-life ([13]; i.v. infusion 3 mg or 10 mg): 11.1 ± 2.4 h | withdrawal symptoms ([14]; 0.5 mg i.v., methadone-dependent subjects): minimal peripheral withdrawal and no detectable CNS withdrawal | subjects tolerating the dose rather well ([14]; 1 mg i.v.): 3 of 4 | overall withdrawal (VAS, SOWS, OOWS, vital signs) ([14]; 0.05-1.0 mg): minimal | tolerability ([14]; 0.05-1.0 mg): well tolerated | tolerability ([14]; 0.05-1.0 mg, listed as 6β-Naltrexol): generally well tolerated | Diastolic BP, peak value ([14]; dose 0.05 mg): 83.0 ± 5.9 mmHg | Heart Rate, peak value ([14]; dose 0.05 mg): 61.8 ± 6.2 bpm | SOWS (total), peak value ([14]; dose 0.05 mg): 0.8 ± 1.0 | Systolic blood pressure (BP), peak value ([14]; dose 0.05 mg): 121.3 ± 7.0 mmHg | VAS Any Drug Effect, peak value ([14]; dose 0.05 mg): 0.5 ± 1.0 | VAS Bad Drug Effect, peak value ([14]; dose 0.05 mg): 0.8 ± 1.5 | VAS Good Drug Effect, peak value ([14]; dose 0.05 mg): 0.3 ± 0.5 | VAS Opioid Withdrawal, peak value ([14]; dose 0.05 mg): 1.3 ± 2.5 | VAS Sickness, peak value ([14]; dose 0.05 mg): 0.50 ± 1.00 | OOWS (total), peak value ([14]; dose 0.05 mg, mean ± standard deviation): 0.8 ± 0.5 | Diastolic BP, peak value ([14]; dose 0.15 mg): 76.5 ± 5.1 mmHg | Heart Rate, peak value ([14]; dose 0.15 mg): 59.5 ± 2.9 bpm | OOWS (total), peak value ([14]; dose 0.15 mg): 1.5 ± 0.6 | SOWS (total), peak value ([14]; dose 0.15 mg): 1.3 ± 1.9 | Systolic blood pressure (BP), peak value ([14]; dose 0.15 mg): 118.5 ± 10.0 mmHg | VAS Any Drug Effect, peak value ([14]; dose 0.15 mg): 1.5 ± 1.7 | VAS Bad Drug Effect, peak value ([14]; dose 0.15 mg): 17.9 ± 32.5 | VAS Good Drug Effect, peak value ([14]; dose 0.15 mg): 2.2 ± 2.8 | VAS Opioid Withdrawal, peak value ([14]; dose 0.15 mg): 1.4 ± 1.3 | VAS Sickness, peak value ([14]; dose 0.15 mg): 9.3 ± 17.2 | Diastolic BP, peak value ([14]; dose 0.5 mg): 80.3 ± 5.7 mmHg | Heart Rate, peak value ([14]; dose 0.5 mg): 61.8 ± 5.7 bpm | OOWS (total), peak value ([14]; dose 0.5 mg): 3.5 ± 1.3 | SOWS (total), peak value ([14]; dose 0.5 mg): 4.3 ± 2.2 | Systolic blood pressure (BP), peak value ([14]; dose 0.5 mg): 118.8 ± 7.6 mmHg | VAS Any Drug Effect, peak value ([14]; dose 0.5 mg): 34.3 ± 15.7 | VAS Bad Drug Effect, peak value ([14]; dose 0.5 mg): 42.5 ± 23.7 | VAS Good Drug Effect, peak value ([14]; dose 0.5 mg): 6.5 ± 12.3 | VAS Opioid Withdrawal, peak value ([14]; dose 0.5 mg): 21.0 ± 29.7 | VAS Sickness, peak value ([14]; dose 0.5 mg): 15.8 ± 18.1 | Diastolic BP, peak value ([14]; dose 1.0 mg): 88.3 ± 12.7 mmHg | Heart Rate, peak value ([14]; dose 1.0 mg): 71.7 ± 4.9 bpm | OOWS (total), peak value ([14]; dose 1.0 mg): 5.3 ± 4.0 | SOWS (total), peak value ([14]; dose 1.0 mg): 4.3 ± 2.8 | Systolic blood pressure (BP), peak value ([14]; dose 1.0 mg): 134.7 ± 26.4 mmHg | VAS Any Drug Effect, peak value ([14]; dose 1.0 mg): 24.0 ± 21.7 | VAS Bad Drug Effect, peak value ([14]; dose 1.0 mg): 26.9 ± 33.0 | VAS Good Drug Effect, peak value ([14]; dose 1.0 mg): 1.0 ± 0.0 | VAS Opioid Withdrawal, peak value ([14]; dose 1.0 mg): 13.1 ± 8.1 | VAS Sickness, peak value ([14]; dose 1.0 mg): 9.0 ± 5.6 | Would continue after highest dose ([14]; individual patients): No and Yes (3×) | pupillometry measures (a CNS effect) ([14]; up to 1 mg): unaffected
